Results from patent US5081107A, “Polypeptide compounds” (Imperial Chemical Industries PLC, priority 1988, dated 1992).
pIC50: −log10 of the molar value. Non-standard residues stand in square brackets, D forms with d. Residues, ends and D or L forms follow the SMILES beside them. *: point of attachment. Isonicotinoyl = O=C(c1ccncc1)*; Cbz = O=C(OCc1ccccc1)*

What was measured:
[1] = tested on: guinea pig pancreatic acini; conditions: cited from earlier work
[2] = tested on: bombesin-induced stimulation of the secretion of the enzyme amylase; conditions: rat, in vivo
Experimental: (c) An in vivo test involving the measurement of the antagonism of the bombesin-induced stimulation of the secretion of the enzyme amylase into the pancreatic duct of the rat by a test compound administered orally, sub-cutaneously or intravenously. Bombesin and the test compound can be administered concomitantly or the test compound can be predosed at any convenient interval, for example 30, 60, 90, 120, 150 or 180 minutes, before bombesin is dosed. Amylase was measured by analysis of the conversion of starch into maltose, on incubation of the starch/amylase mixture at 30° C. for 15 minutes, using a spectrophotometric assay as originally described by P. Bernfield in `Methods in Enzymology` Vol. I, p17 (Editors Colowick and Kaplan, Academic Press, New York, 1955). Bombesin (5 micrograms/kg, intravenously) causes a large, but submaximal, increase of amylase secretion within 30 minutes.

[3] = tested on: mouse Swiss 3T3-fibroblast cells; format: cell-based; conditions: 3 h
Experimental: (b) An in vitro assay which assesses the ability of a test compound to inhibit the Neuromedin C stimulated mitogenesis of mouse Swiss 3T3-fibroblast cells as determined by the uptake of [^3 H]-thymidine. The test is similar to those described by N. Corps., L. Rees and K. Brown, Biochem. Journal, 1985, 231, 781 and I. Zachary and E. Rozengurt, Proc. Nat. Acad. Sci. USA, 1985, 82, 7616, except that GRP (18-27) (0.2 or 0.4nM) was used to stimulate growth and the test compounds were dissolved in an assay medium containing 0.1% bovine serum albumin and 0.4% dimethylsulphoxide and […]

[4] = biological target: T1, bombesin receptor of mouse Swiss 3T3-fibroblast cells (Mus musculus, UniProt P21729); test: Test (a): in vitro binding assay, displacement of [I125]GRP; conditions: ambient temperature, 1 hour
T1 construct: the bombesin receptor of mouse Swiss 3T3-fibroblast cells; endogenous in cells; host or cells: mouse Swiss 3T3 fibroblast cells
T1 sequence (P21729 whole entry): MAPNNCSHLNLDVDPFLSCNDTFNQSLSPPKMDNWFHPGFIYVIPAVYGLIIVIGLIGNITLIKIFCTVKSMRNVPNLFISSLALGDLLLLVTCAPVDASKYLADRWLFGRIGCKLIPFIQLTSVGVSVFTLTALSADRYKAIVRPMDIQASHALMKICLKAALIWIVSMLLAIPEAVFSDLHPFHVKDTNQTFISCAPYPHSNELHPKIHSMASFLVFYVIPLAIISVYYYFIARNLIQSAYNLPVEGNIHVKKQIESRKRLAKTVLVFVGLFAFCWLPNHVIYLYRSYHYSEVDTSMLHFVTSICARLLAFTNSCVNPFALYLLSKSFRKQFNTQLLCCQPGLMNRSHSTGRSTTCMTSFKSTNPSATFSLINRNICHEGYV
Experimental: (a) An in vitro binding assay which assesses the ability of a test compound to displace radiolabelled gastrin releasing peptide ([I^125 ]GRP) from the bombesin receptor of mouse Swiss 3T3-fibroblast cells. The test is similar to that described by I. Zachary and E. Rozengurt, Proc. Nat. Acad. Sci. USA, 1985, 82, 7616, except that the cells are incubated at ambient temperature for 1 hour;

[5] = tested on: bombesin-induced hypothermia; conditions: rat; cited from earlier work

In the case of [D-Phe^12 ]bombesin, the “inhibition of bombesin-stimulated secretion of amylase” value (“inhibition” for short) [1] is given as “inhibited”.

In the case of `CNC(=O)[C@H](CC(C)C)NC(=O)[C@H](CCCCNC(=O)OCc1ccccc1)NC(=O)[C@@H](C)NC(=O)[C@@H](NC(=O)[C@H](C)NC(=O)[C@H](Cc1c[nH]c2ccccc12)NC(=O)[C@H](Cc1c[nH]cn1)NC(=O)c1ccncc1)C(C)C` [4-Pyridyl-CO--His--Trp--Ala--Val--D-Ala--Lys(Z)--Leu--NHMe] (Isonicotinoyl-HWAV[dA]K(Cbz)L-NHMe), the “IC50 in test (c)” value [2] was less than 0.02 mg/kg and the pIC50 [3] was 9.70.

In the case of [D--Phe^12, Leu^14 ]bombesin, the “inhibition” value [1] is given as “inhibited”.

For `COC(=O)[C@H](CC(C)C)NC(=O)[C@H](Cc1c[nH]cn1)NC(=O)[C@@H](C)NC(=O)[C@@H](NC(=O)[C@H](C)NC(=O)[C@H](Cc1c[nH]c2ccccc12)NC(=O)[C@H](Cc1c[nH]cn1)NC(=O)c1ccncc1)C(C)C` [4-Pyridyl--CO--His--Trp--Ala--Val--D--Ala--His--Leu--OMe] (Isonicotinoyl-HWAV[dA]HL-OMe), the “IC50 in test (c)” value [2] was less than 0.5 mg/kg, the pIC50 [4] was 8.82 and the pIC50 [3] was 9.15.

In the case of [Tyr^4, D--Phe^12 ]bombesin, the “inhibition” value [1] is given as “inhibited”.

In the case of “[D--Glp^7, D--Ala^11, Ala^14 ]bombesin (7-14)”, the “antagonism of bombesin-induced hypothermia” value [5] is given as “partial antagonist”.
